“Also recorded” adds a separate entry of the source.
Tests used:
[1] = test system: HIV-1 (LAV-1 strain) in MOLT-4 cells; assay: Inhibitory activity of HIV syncytia formation: HIV-1 acute-phase infection; assay type: cell-based; conditions: in concentrations of at least 1.0 μM; 48 hours
Protocol: a) Activity of the medicament on HIV-1 acute-phase infection:
Cells obtained by culturing MOLT-4 (American Type Culture Collection ATCC CRL-1582) in RPMI medium (GIBCO Corp.) containing 10% FBS (fetal bovine serum: GIBCO Corp.) (culture condition: 37° C., 5% CO2 /95% air) were prepared to aliquot number of cells (1×10^5 cells/50 μl). The cell suspension, 50 μl and the liquid preparation, 50 μl containing HIV-1 (LAV-1 strain, Wain-Hobson et al., Cell 40: 9-17, 1985) in RPMI medium with 10% FBS were put into each well of a 96 hole microplate and cultured for 48 hours (Infectious condition of MOLT-4 and HIV-1: M.O.I.=4.0).
Each compound was dissolved in RPMI medium containing 10% FBS at the final concentration as shown in FIG. 1 to prepare the medicament solution. The medicament solution, 100 μl was added to the mixture of MOLT-4 cell preparation and HIV-1 preparation at the time of mixing with MOLT-4 and HIV-1 to prepare the final volume of the liquid, 200 μl. The number of formed syncytia were microscopically counted.
Tested compounds were: FAS (fasudil hydrochloride, Chem. Pharm. Bull., 40 (3), 770-773, (1992)), C kinase inhibitor H-7 (1-5-isoquinolinylsulfonyl)-2-methyl-piperazine, Sigma Corp.), and calmodulin kinase II inhibitor KN-62 (1-(N,O-bis-[5-isoquinolinylsulfonyl]-N-methyl-L-tyrosyl)-4-phenyl-piperazine, Sigma Corp., Neuroscience Lett., 129, 47 (1991)) .
The control group without the compound was prepared by replacing the medicament solution, 100 μl.
Syncytium formation activity was calculated by comparing the syncytia formation in the test group to that of the control group in the following equation.
Syncytium formation activity=number of syncytia formed in the medicament-added group/number of syncytia formed in the no-medicament-added group.

[2] = test system: HIV-1 p24 gag protein, HIV-1 infected MOLT-4 cells; assay: Suppressive action of HIV production (p24 gag protein in culture supernatant, ELISA); assay type: cell-based; conditions: FIG. 4; 5 days; hydrochloride
Protocol: Suppressive action of HIV production (extracellular release from cells). Cells obtained by culturing MOLT-4 (culture condition: 37° C., 5% CO2 /95% air. RPMI medium (GIBCO Corp.) containing 10% FBS) were adjusted to a preferable number of cells (1×10^5 cells/50 μl). The cell suspension, 50 μl, (infection with MOLT-4 and HIV-1: M.O.I.=1.0) were put in a 96 hole microplate and cultured for 1 hour to infect the cells. A solution of the compounds shown below, 100 μl, was added in each well and cultured for 5 days. The cultured solution was transferred into a plastic tube (Eppendorf Corp.) and centrifuged. The amount of p24 gag protein in the cultured supernatant medium wa assayed by using an Abbott kit (ELISA: Dinabot Co.). FAS, H-7 and KN-62 were used as the compound, and a solution without the compound was used as a control.

[3] = test system: HIV-1 (LAV-1) persistently infected MOLT-4 cells with non-infected MOLT-4 cells; assay: Inhibitory activity of HIV syncytia formation: HIV-1 chronic-phase infection; assay type: cell-based
Protocol: b) Activity of the medicament on HIV-1 chronic-phase infection:
Cells obtained by culturing MOLT-4 (culture condition: 37° C., 5% CO2 /95% air, RPMI medium (GIBCO Corp.) containing 10% FBS) were adjusted to a preferable number of cells (1×10^5 cells/50 μl). HIV-1 (LAV-1) preparation, 50 μl was added to the cell suspension, 50 μl and subjected to a mixing culture (infectious condition of HIV-1 to MOLT-4: M.O.I.=1). The infected cell mixture was cultured by exchanging a fresh culture medium every 3 days at a volume rate of 2:5. The culture was continued for more than 1 month to prepare persistent infected cells. The concentration of the persistent infected cells was adjusted to a preferable number of cells (1×10^5 cells/50 μl ) (the persistent infected cell preparation).
Cell preparation without infection was prepared by culturing MOLT-4 (culture condition: 37° C., 5% CO2 /95% air, RPMI medium (GIBCO Corp.) containing 10% FBS) and adjusting the concentration to a preferable number of cells (1×10^5 cells/50 μl).
The persistent infected cell preparation, 50 μl, was placed in the wells of a 96 hole microplate and the non-infected cell preparation, 50 μl, was added therein and cultured for 48 hours. Numbers of the formed syncytia were counted microscopically.
Each compound solution tested was added, 100 μl, at the time of mixing the persistent infected cell preparation with the non-infected cell preparation, to provide the final concentrations shown in FIG. 2 (medicament added test group).
The no-medicament-added group (control group) was prepared by replacing the compound solution, 100 μl.

C kinase = conditions: Cranial Nerve, 45 (9), 819-824, 1993; cited from earlier work
parainfluenza virus = assay: Inhibitory action for plaque formation of parainfluenza virus; assay type: cell-based; conditions: mean of two, control 51.5
Protocol: (§1) Experiments were performed according to a method described in Antiviral Chemistry and Chemotherapy, 5 (6), 366-371, 1994 and Experimental Virology, Ed. by NIH Japan alumni assoc., Maruzen Publ. 1982, p. 65-78 or p. 331-340.
(§2) Vero cells cultured in the medium (Dulbecco's modified MEM added with 10% FBS) were detached by trypsin (Sigma Corp.). The detached cells were suspended by 2×10^5 cells/ml in the same medium, and placed in the wells of a 48 hole plate. The plate was incubated at 37° C. under 5% CO2 for about one day to complete a full-sheet of the cells in all wells. After incubation, cultured supernatant was removed. A solution (50 μl) containing the compound diluted with 4-fold stepwise dilution by virus culture medium (MM: Dulbecco's modified MEM added with 2% FBS), was added thereto.
(§3) A viral solution, 50 μl, in which the number of virus (parainfluenza virus or Herpes simplex virus type I) was adjusted to about 50 pfu (plaque forming unit)/50 μl by MM, was added to each well. MM 400 μl containing 1% methylcellulose was added in each well to provide a compound-added test group. A control group was prepared by adding the viral culture medium without adding the test compound.
(§4) The groups were incubated at 37° C. under 5% CO2 for three days to form plaques and the number of plaques in each well was counted.
(§5) The test compounds were FAS, and the compound of formula [I] where R^1 is hydroxy. The final concentration of the compound in the solution was set to 100, 25, 6.3 and 1.6 μg/ml, respectively. Each test group included 2 wells and a mean of the plaque numbers was obtained.

[4] = test system: Herpes simplex virus type I; assay: Inhibitory action for plaque formation of Herpes simplex virus type I; assay type: cell-based; conditions: mean of two, control 51
Protocol: as §1, §2, §3, §4, §5

Compound: Cl.O=S(=O)(c1cccc2cnccc12)N1CCCNCC1 [FAS, hexahydro-1-(5-isoquinoline-sulfonyl)-1H-1,4-diazepine hydrochloride]
- inhibition of syncytia formation [1]: 90%
- p24 gag protein in the cultured supernatant medium / HIV-1 generation [2]: decreased p24 gag protein in the cultured supernatant medium and suppressed HIV-1 generation; also recorded: apparently stronger than that of H-7 (-.increment.-) and KN-62 (-.quadrature.-)
- viral transmission from persistent infected cells to non-infected cells [3]: suppressed
- inhibitory activity for syncytium formation ([3]; FIG. 2, 48 hours): extremely high suppressive action on syncytium formation
- minimal effective concentration ([3]; Human immunodeficiency virus 1, MOLT-4, 48 hours, persistent infected cells mixed with non-infected cells, read-out: concentration showing inhibitory activity for syncytium formation): ≥ 3.75 µM
- C kinase inhibition (C kinase): C kinase inhibition
- Plaque No. (parainfluenza virus; 6.3 μg/ml): 50.5
- Plaque No. (parainfluenza virus; 25 μg/ml): 36
- Plaque No. (parainfluenza virus; 100 μg/ml): 3.5
- Plaque No. ([4]; 1.6 μg/ml): 51
- Plaque No. ([4]; 6.3 μg/ml): 46
- Plaque No. ([4]; 25 μg/ml): 49
- Plaque No. ([4]; 100 μg/ml): 0
